Results reported in patent publication US20240110200A1, “Recombinant AAV Vectors and Gene Therapies for Treating Brain Diseases” (City University of Hong Kong, priority 2022, published 2024).
*1 amine or outer side, *2 acyl side, *3 side chain or, on linkers, in order; H or OH if unused. Where a SMILES comes first, the peptide text is derived from it. Where no end group is shown, it is not given here. Side-chain parts run from the residue outwards. [ ]: non-standard residue; d: D form. The star is where a group is joined. NMeF = CN[C@@H](Cc1ccccc1)C(=O)O; NH(2-Me-phenyl) = Cc1ccccc1N*; Boc = CC(C)(C)OC(=O)*; CO = O=C([*:1])[*:2]; Ahx = NCCCCCC(=O)O

Key:
[1] = test system: pyramidal neurons (CCK-GABA synapses) in the AC; assay: In vitro patch-clamp recording of laser-evoked IPSC in pyramidal neurons of auditory cortex brain slices; format: cell-based, CCK-Cre mice
Procedure: In the experiments of FIGS. 2-3, a protective cutting and recovery method is adopted in preparing acute brain slices of CCK-Cre, PV-Cre, CCK-KO, and CCK1R/2R-KO mice to achieve a higher success rate for patch-clamp, as previously described in Chen, X., et al., Natl. Acad. Sci., Vol. 116, pp. 2019. Briefly, the anaesthetized mice are perfused transcardially with NMDG-aCSF (92 mM NMDG, 2.5 mM KCl, 1.25 mM NaH2PO4, 30 mM NaHCO3, 20 mM HEPES, 25 mM glucose, 2 mM thiourea, 5 mM Na-ascorbate, 3 mM Na-pyruvate, 0.5 mM CaCl2·4H2O, and 10 mM MgSO4·7H2O; pH 7.3-7.4), and the brain is extracted and cut into 300 μm-thick sections. The slices are transferred to NMDG-aCSF for 10 min at 32-34° C. to allow protective recovery and then to room-temperature HEPES-aCSF (92 mM NaCl, 2.5 mM KCl, 1.25 mM NaH2PO4, 30 mM NaHCO3, 20 mM HEPES, 25 mM glucose, 2 mM thiourea, 5 mM Na-ascorbate, 3 mM Na-pyruvate, 2 mM CaCl2·4H2O, and 2 mM MgSO4·7H2O; pH 7.3-7.4) for at least 1 h before recording.
Whole-cell recordings (with Multiclamp 700B amplifier and Digital 1440A digitizer, Molecular Devices, www.moleculardevices.com, Menlo Park, California, USA), targeting the AC of the brain slices in room-temperature aCSF (119 mM NaCl, 2.5 mM KCl, 1.25 mM NaH2PO4, 24 mM NaHCO3, 12.5 mM glucose, 2 mM CaCl2·4H2O and 2 mM MgSO4·7H2O, ˜25° C.) are performed. Patch pipettes are pulled with resistance between 3-5 MQ from borosilicate glass (WPI, World Precision Instruments; UK; httpss://www.wpiinc.com/) on a Sutter-87 puller (Sutter Instrument; CA, US, https://www.sutter.com/). The intracellular solution contains: 145 mM K-Gluconate, 10 mM HEPES, 1 mM EGTA, 2 mM Mg-ATP, 0.3 mM Na2-GTP, and 2 mM MgCl2; pH 7.3; 290-300 mOsm. Similarly, after Giga-Ohm seal formation, recordings are made and then terminated if Rs changes more than 20%. Pyramidal neurons are selected based on the pyramidal-like shape and the firing pattern of regular spiking by injecting step currents.
Laser stimulation is applied through an optical fiber placed ˜200 μm from the recording neuron using Aurora-220 (473 nm, NEWDOON, Changchun, China; http://www.newdoon.com/) to activate ChR2^+ neurons (GABAergic). In the examples, only neurons that respond to the laser pulse is recruited. HFLS (10-pulse burst at 40 Hz, repeated for 10 trials) or Low-frequency Laser Stimulation (LFLS, 1 Hz, 100 pulses) with a 15-s interval is delivered. Inhibitory postsynaptic currents (IPSCs) to the laser stimulation (1 pulse per 15 s, 5 ms in duration) under voltage-clamp recording mode (holding at −60 mV to −50 mV) are recorded for 5 min as the baseline before and for 25 min after the HFLS or LFLS.
For the normalization of recorded IPSC in the CCK-Cre, PV-Cre, CCK-KO, and CCK1R/2R-KO mice, only the patched neurons are recruited when the IPSC is greater than 35 pA.

Flag-GPR173 = target: T1, Flag-GPR173 (Homo sapiens, UniProt Q9NS66); assay: Cell surface binding assay, HEK293T cells transfected with Flag-GPR173; conditions: CCK-binding assay, FIG. 4B
T1 construct: host or cells: HEK293T
T1 sequence (Q9NS66 whole entry): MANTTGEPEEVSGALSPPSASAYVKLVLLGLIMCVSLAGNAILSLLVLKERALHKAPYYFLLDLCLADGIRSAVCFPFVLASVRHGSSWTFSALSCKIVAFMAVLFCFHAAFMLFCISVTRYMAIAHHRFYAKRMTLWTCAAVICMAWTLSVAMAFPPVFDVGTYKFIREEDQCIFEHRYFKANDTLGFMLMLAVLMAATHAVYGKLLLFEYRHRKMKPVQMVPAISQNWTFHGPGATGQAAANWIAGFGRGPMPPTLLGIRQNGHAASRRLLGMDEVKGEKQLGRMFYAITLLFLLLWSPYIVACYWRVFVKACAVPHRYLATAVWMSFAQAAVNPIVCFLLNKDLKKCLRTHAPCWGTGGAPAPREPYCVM
Procedure: HEK293T cells are transfected with pCDNA3.1(+)-Flag-GPCR (purchased from Public Protein/Plasmid Library, Nanjing, China, http://ppl.biogot.com; or home-made by us based on pCDNA3.1(+) backbone). The cells are incubated with HA-ε-Ahx-ε-Ahx or HA-(ε-Ahx)2-CCK8s dissolved in HHBS solution (Hank's solution including 20 mM N-2-hydroxyethylpiperazine-N′-2-ethanesulfonic acid (HEPES), pH=7.4) for 30 min at room temperature, 48 h after transfection by Lipo6000 (Beyotime Biotechnology, Shanghai, China, https://www.beyotime.com/). After three washes with HHBS, cells are fixed in 4% paraformaldehyde and 4% sucrose in PBS for 15 min at room temperature. Cells are blocked in 5% normal goat serum in PBS, and staining is performed in detergent-free conditions without cell permeabilization after three washes by PBS. Primary antibody rabbit anti-HA (CST, 3724 Boston, US, https://www.cellsignal.com), anti-GPR173 (PA5-50976, ThermoFisher, Waltham, MA, US, https://www.thermofisher.cn) and mouse anti-Flag (CST-8146, Boston, US, https://www.cellsignal.com) are used to detect HA and Flag tags. For binding assay of pCDNA3.1(+)-AcGFP-CCK1R, only rabbit anti-HAprimary antibody is used to detectHAtag. Images are captured on a Leica SP8 confocal microscope (Leica Microsystems, Danaher Corporation, US, https://www.leica-microsystems.com/). […]

GPR173 [2] = target: T2, GPR173 (Homo sapiens, UniProt Q9NS66); assay: Calcium imaging assay in CHO-GPR173 cell line; format: cell-based; conditions: for calcium signal in CHO-GPR173 cells: after incubation with the peptide
T2 sequence (Q9NS66 whole entry, species assumed): as the sequence (Q9NS66 whole entry) above
Procedure: (§1) All measurements of calcium imaging are performed by EnVision 2104 Multilabel Reader (Perkin Elmer, Waltham, Massachusetts, US, https://www.perkinelmer.com, excitation: 485 nm and emission: 535 nm). […] Cells are cultured at 37° C., 5% CO2 in DMEM/F-12 medium (Thermo Fisher, Waltham, MA, US, https://www.thermofisher.cn) containing 10% FBS (Natocor-Industria Biológica) and washed with DMEM/F-12 medium once after overnight incubation.

GPR173 [3] = target: T2, GPR173; assay: Antagonism of CCK1R/2R antagonists to GPR173; format: cell-based
Procedure: as §1

[4] = target: T3, Flag-HTR1B on transfected HEK293T cells (UniProt P28222 1-390); assay: cell surface binding assay on HEK293T cells transfected with Flag-tagged GPCRs, anti-HA and anti-Flag staining, confocal
T3 construct: whole, on cells
T3 sequence (P28222 whole entry): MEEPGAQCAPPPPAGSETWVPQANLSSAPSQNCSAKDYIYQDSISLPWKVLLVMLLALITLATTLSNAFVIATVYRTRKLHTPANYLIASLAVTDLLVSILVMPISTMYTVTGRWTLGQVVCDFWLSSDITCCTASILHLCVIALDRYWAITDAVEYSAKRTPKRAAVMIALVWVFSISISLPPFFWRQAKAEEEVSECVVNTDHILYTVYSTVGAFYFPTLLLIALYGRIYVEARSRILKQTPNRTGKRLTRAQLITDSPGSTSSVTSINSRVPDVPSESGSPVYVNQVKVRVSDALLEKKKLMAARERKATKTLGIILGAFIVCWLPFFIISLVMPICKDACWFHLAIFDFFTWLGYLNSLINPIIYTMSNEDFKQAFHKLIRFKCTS
Procedure: HEK293T cells are transfected with pCDNA3.1(+)-Flag-GPCR (purchased from Public Protein/Plasmid Library, Nanjing, China, http://ppl.biogot.com; or home-made by us based on pCDNA3.1(+) backbone). […] After three washes with HHBS, cells are fixed in 4% paraformaldehyde and 4% sucrose in PBS for 15 min at room temperature. Cells are blocked in 5% normal goat serum in PBS, and staining is performed in detergent-free conditions without cell permeabilization after three washes by PBS. […] For binding assay of pCDNA3.1(+)-AcGFP-CCK1R, only rabbit anti-HAprimary antibody is used to detectHAtag. Images are captured on a Leica SP8 confocal microscope (Leica Microsystems, Danaher Corporation, US, https://www.leica-microsystems.com/). Images within each experiment are collected using identical laser-power, offset, and gain.

Row | Molecule | calcium signal in CHO-GPR173 cells (GPR173 [2]) | IC50 (GPR173 [3]) | also measured
1 | CCK8s | strong calcium response |  | normalized IPSC amplitude 25-30 min after CCK8s+1 Hz ([1]; 200-nM CCK8s bath application 3 min before LFLS (1 Hz, 100 pulses), baseline 100.00±2.53, n=8 neurons): 161.84±4.38%; iLTP after CCK8s followed by LFLS ([1]; CCK8s+1 Hz group vs aCSF+1 Hz): large iLTP; binding affinity of Flag-GPR173 with CCK8s (Flag-GPR173): prominent binding affinity
2 | CN1C(=O)[C@@H](NC(=O)c2cc3ccccc3[nH]2)N=C(c2ccccc2)c2ccccc21 [Devazepide] |  | 12.3 ± 3.41 nM | blockade of HFLS-induced iLTP ([1]; Devazepide 60 nM in bath solution): entirely blocks the iLTP; normalized IPSC 20-25 min after Devazepide infusion and the HFLS ([1]; Devazepide 60 nM in bath solution, baseline 100.18±1.91, HFLS alone 183.70±6.25%, n=8): 103.24±2.54%
3 | Cc1ccccc1NC(=O)NCCCC[C@H](NC(=O)[C@H](Cc1c[nH]c2ccccc12)NC(=O)OC(C)(C)C)C(=O)N[C@@H](CC(=O)O)C(=O)N(C)[C@@H](Cc1ccccc1)C(N)=O [A-71623] (Boc-WK([CO-NH(2-Me-phenyl)])D[NMeF]-NH2) |  |  | activation of the CHO-GPR173 cell line (GPR173 [2]; even at 100 μM): does not activate
4 | CNc1cccc(NC(=O)N[C@@H]2N=C(c3ccccn3)c3ccccc3N(CC(=O)C(C)(C)C)C2=O)c1 [YF476] |  | 3100 nM | 
5 | Phoenixin (DVQPPGLKVWSDPF) [PNX, Phoenixin, peptide claimed in the literature to act through GPR173] | no calcium signal |  | 
6 | CCCCCN(CCCOC)C(=O)C(CCC(=O)O)NC(=O)c1ccc(Cl)c(Cl)c1 (centres unmarked) [Loxiglumide] |  | 715 ± 99.4 nM | 
7 | Cc1cccc(NC(=O)N[C@@H]2N=C(c3ccccc3)c3ccccc3N(C)C2=O)c1 [L365,260] |  | 16800 nM | 
8 | CCK4: CCK2R-selective agonist | evokes no response |  | 
9 | {HA tag-Ahx-Ahx}-DYMGWMDF (peptide, UniProt P06307 96-103, looked up, not shown: small tags and cut ends, ends and bridges not checked; also: sulphated CCK8, site not given here, Chemically synthesised; also called HA-(ε-Ahx)2-CCK8s; HA-labeled CCK8s) [HA2A8s (HA-ε-Ahx-ε-Ahx-CCK8s)] |  |  | binding result [4]: no binding
